In a melting point compilation (Tetko et al.; mined from patent text by program, amines drawn as free bases though some values may be those of a salt):

| SMILES | melting point |
| --- | --- |
| CCCNC(=S)NC1=Nc2ccc(OC(F)(F)F)cc2CS1 | 148 to 151 °C |
| CCC12CC(Cl)C3C4CCC(=O)C=C4CCC3C1C(OC(C)=O)CC2=O (stereo unspecified) | 125 °C |
| CCOC(=O)Oc1cc2occ(C(=O)O)c(=O)c2cc1OC(=O)OCC | 107 to 109 °C |
| CCCc1cc(N2CCC(NCC(O)c3nccc4ccccc34)CC2)nc2sc(C(N)=O)c(N)c12 (stereo unspecified) | < 150 °C |
| O=C1C(Cc2ccccc2C(F)F)c2ccccc2C12COc1cc3c(cc12)OCCO3 (stereo unspecified) | 191 to 193 °C |
| CCC(Oc1c(Cl)cccc1Cl)C(=O)OC1CC(O)C=C2C=CC(C)C(CCC3CC(O)CC(=O)O3)C21 (mixture of isomers) | 107 to 109 °C |
| CCc1cccc(NC(=O)C=C(C)C)c1 | 90 °C |
| Cc1nc2c(-c3cccc(N4CCN(C)CC4)c3)cnn2c(N)c1-c1ccc(F)c(Cl)c1 | 224 to 226 °C |
| COc1ccccc1N1CCN(C(=O)[C@H](N)Cc2cccnc2)CC1 | > 240 °C |
| C=CCn1c(NCCOc2ccccc2)nc(N2CCc3ccccc3CC2)c(C#N)c1=O | 157 to 160 °C |
| O=CN1CCC23CC(=O)CCC2C1Cc1cccc(O)c13 (stereo unspecified) | 260 to 262 °C |
| CCOC(=O)COc1ccc(SCc2ccc3nc(-c4ccc(C(F)(F)F)cc4)sc3c2)cc1C | 176 to 177 °C |
| O=c1c2ccccc2n(CCc2ccccc2)c(=O)n1S(=O)(=O)c1ccc(Cl)cc1 | 200 to 202 °C |
| COC(=O)[C@H](Cc1ccccc1)NC(=O)[C@H](Cc1ccccc1)NC(=S)Cc1ccc(C)cc1 | 115 to 117 °C |
| O=C(c1cc2ccc3[nH]ccc3c2[nH]1)N1CCC(Cc2ccccc2)CC1 | 186 to 188 °C |
| O=C(NO)c1ccc(-c2c3ccccc3nn2Cc2ccccc2)cc1 | 201 to 203 °C |
| Nc1c(-c2cc(Cl)ccc2O)c2ccccc2[nH]c1=O | 265 to 268 °C |
| CC(=O)Oc1ccc(C(=O)Nc2ncc(S(C)(=O)=O)s2)cc1 | 280 to 281 °C |
| CCOC(=O)c1c(O)c2cc(C)ccc2n(C)c1=O | 132 °C |

| SMILES | melting point |
| --- | --- |
| CS(=O)(=O)N(Cc1cccnc1)c1ccccc1OCC(F)(F)F | 80 to 84 °C |
| Nc1ccc(OCCCCCOc2ccc(N)cc2)cc1 | 78 to 79 °C |
| CCN1C(=O)C(C)(C)C(=O)N(C)c2cc(CN(CCn3cc(C)c4occc4c3=O)Cc3cc(C)nn3C)ccc21 | 193 to 195 °C |
| COc1ccc(CCCN(Cc2ccccc2)C[C@@H](O)c2ccc(OCc3ccccc3)c(OCc3ccccc3)c2)cc1 | 59 to 62 °C |
| Nc1cc(I)c(I)cc1N | 135 to 136 °C |
| OC(=S)C=Cc1cccc2ccccc12 | 102 to 103 °C |
| O=C(O)c1cc2c(s1)S(=O)(=O)CC2 | 227 to 230 °C |
| CCC(=O)Nc1ccc2nc(C(=O)NCc3cccc(OC)c3)[nH]c(=O)c2c1 | 222 to 223 °C |
| COC(=O)c1ccc(COc2cc(F)cc(C3(OC)CCOCC3)c2)cc1 | 88 to 89 °C |
| Cc1nc(S)c2[nH]cnc2n1 | > 300 °C |
| CC(C)c1cccc(C(C)C)c1NC(=O)CN1CCN(CCCSc2nc3ccccc3s2)CC1 | 113 to 115 °C |
| CCCNC(=O)[C@H](CSCc1ccccc1)NC(=O)c1cc2cccc(NS(=O)(=O)c3cccs3)c2[nH]1 | 124 to 125 °C |
| COc1ccc(N2CCN(Cc3ccc([N+](=O)[O-])cc3)CC2)cc1 | 130 to 132 °C |
| COC(=O)c1ccc(Cl)c(CBr)c1Cl | 51 to 54 °C |
| COC1C2=C3C(=CN1OC)OCCC3CCC2 (stereo unspecified) | 235 to 238 °C |
| O=S(=O)(Nc1cc(Cl)sc1Cl)c1cc(-c2ncc(C(F)(F)F)cc2Cl)ccc1Cl | 106 to 108 °C |
| CC(C)(C)OC(=O)N[C@@H](CSc1ccccc1N)C(=O)O | 109 to 111 °C |
| CN(C)CCOc1ccc(C(=O)c2c(-c3ccc(O)cc3)sc3cc(O)ccc23)cc1 | 141 to 144 °C |
| O=S1(=O)NCN(C2CCCCCC2)c2ccc(Cl)cc21 | 216 to 218 °C |

Next, values leading:

| melting point | SMILES |
| --- | --- |
| 203 to 204 °C | C=C=CC1(NC(=O)c2ccccc2)CCCNC1=O (stereo unspecified) |
| 138 to 139 °C | O=C(NCCCCCCCNC(=O)c1ccc(OC(F)F)cc1)c1ccc(OC(F)F)cc1 |
| 191 to 193 °C | O=C(CC1c2ccc(-c3ccccc3)cc2S(=O)(=O)N1c1ccccc1)NO (stereo unspecified) |
| 112 to 115 °C | O=C(Nc1nccs1)C(CC1CCCC1)c1ccc(-c2ccc3[nH]ccc3c2)cc1 (stereo unspecified) |
| 74 °C | CC(C)Oc1nc(O)ns1 |
| 210 to 211 °C | CC(C)OC(=O)Nc1ccc2nc(-c3ccccc3)oc2n1 |
| 198 to 200 °C | CSc1[nH]cc(CCc2ccccc2)c1[N+](=O)[O-] |
| 165 °C | O=C(O)CSc1c(Cl)cc2c(-c3ccccc3F)noc2c1Cl |
| 134 to 138 °C | Cc1cc(C(=O)NC(CCC(=O)OC(C)(C)C)C(=O)O)ccc1-c1c2cc(F)c(=O)cc-2oc2cc(O)c(F)cc12 (stereo unspecified) |
| 188 to 189 °C | Cc1cc(N2CCN(c3nc(-c4ccccc4)nc(C)c3C)CC2)cc(C)c1O |
| 99 to 102 °C | CN(C)Cc1ccc2oc(-c3ccc(O)cc3)cc(=O)c2c1 |
| 154 to 156 °C | N#Cc1ccc(C2=Nc3ccccc3C(=O)C2=Cc2ccncc2)cc1 |
| 211 to 213 °C | Cc1cc(O)ccc1-n1cc(C(=O)O)c(=O)cc1C1=CCCC1 |
| 103 to 105 °C | CC(CCc1ccc(OCCO)cc1)NCC(O)c1cccc(Cl)c1 (stereo unspecified) |
| 104 to 106 °C | CC(CCC(=O)O)c1ccc(OCc2ccccc2C(=O)O)cc1 (stereo unspecified) |
| 133 °C | CC(CO)(CO)NS(=O)(=O)c1cc([N+](=O)[O-])c(Cl)s1 |
| 180 to 183 °C | COc1c(C)c2c(c(OC(C)=O)c1C/C=C/c1c(C)cccc1C(=O)O)C(=O)OC2 |

| melting point | SMILES |
| --- | --- |
| 102 to 105 °C | CN1CSC(Cc2cc(C(C)(C)C)c(O)c(C(C)(C)C)c2)C1=O (stereo unspecified) |
| 86 to 87 °C | COC(=O)C1C=CCN2C(=O)C(C)(CCI)C(=O)N12 (stereo unspecified) |
| 92 to 93 °C | OCCCCCCCCCCCc1ccc(O)c(O)c1 |
| 261 to 264 °C | Cc1ncc([N+](=O)[O-])n1CCn1c(=O)[nH]c2ccccc2c1=O |
| 200 to 201 °C | CC(C)(C)N1C(=O)C(=O)N(c2ccc(C#N)cc2)C1=S |
| 125 to 126 °C | CCCCOc1cc(CCC(=O)O)n(Cc2ccc(C(F)(F)F)cc2Cl)n1 |
| 72 to 73 °C | CCOC(=O)c1cc(CC)sc1Nc1c([N+](=O)[O-])cccc1C(F)(F)F |
| 68 to 71 °C | C=CC(=O)OCCSc1ccc2sc3ccccc3c(=O)c2c1 |
| 132 to 133 °C | O=C1CCN(Cc2cccnc2)C(=O)C1=C1SC=CS1 |
| 195 to 198 °C | CC(Nc1ncnc2[nH]cnc12)c1oc2cccc(F)c2c(=O)c1-c1cccc(F)c1 (stereo unspecified) |
| 118 to 120 °C | CC(C)c1c(C=C(Br)Br)c(-c2ccc(F)cc2)n2ccccc12 |
| 205 °C | Cc1cc(S(C)(=O)=O)ccc1-n1nc(C(F)(F)F)cc1-c1ccc(-c2ccco2)cc1 |
| 171 to 173 °C | Cc1onc(-c2cccc(Cl)c2)c1C(=O)O |
| 147 °C | CN1CCc2c(c(Br)cc3nc(OCc4ccccc4)c(OCc4ccccc4)nc23)C1 |
| 258 °C | Cc1ccc(S(=O)(=O)N2CCN(S(=O)(=O)c3ccc(C)cc3)[C@@H](c3ccccc3)C2)cc1 |
| 261 to 264 °C | O=C(O)CN1C(=O)C(=Cc2cccnc2)SC1=S |
